Reference: patent US20230400471A1, “SYSTEMS, COMPOSITIONS AND METHODS OF DETERMINING VIABILITY OF EMBRYOS USING THE SAME” (BioIncept, LLC, priority 2020, published 2023)

How the values were obtained:
[1] = tested on: rabbit anti-PIF polyclonal antibody; experiment: PIF colorimetric ELISA using rabbit polyclonal antibody, epitope mapping with PIF peptides of various length; type: binding; conditions: for recovery by PIF colorimetric ELISA using rabbit polyclonal antibody: Table 3, spike concentration not given; for % recovery by Rabbit Polyclonal Antibody: representative value of three repeats
Protocol: (§1) To study PIF peptide and its derivatives of different length for binding to rabbit anti-PIF monoclonal antibody and rabbit anti-PIF polyclonal antibody, PIF peptides of various lengths as listed in Table 2 was synthesized, reconstituted in PBS and two different concentrations were tested by respective colorimetric ELISA following standard protocol. The standards were run in duplicate and the samples were run in triplicate and repeated three times.

[2] = tested on: rabbit anti-PIF monoclonal antibody; experiment: PIF colorimetric ELISA using rabbit anti-PIF monoclonal antibody, epitope mapping with PIF peptides of various length; type: binding; conditions: for recovery by PIF colorimetric ELISA using rabbit anti-PIF monoclonal antibody: Table 3, spike concentration not given; for % Recovery by Rabbit Monoclonal Antibody: representative value of three repeats
Protocol: as §1

Substance	recovery by PIF colorimetric ELISA using rabbit polyclonal antibody [1]	% recovery by Rabbit Polyclonal Antibody ([1]; spike concentration 500 ng/ml) [%]	% recovery by Rabbit Polyclonal Antibody ([1]; spike concentration 1000 ng/ml) [%]	recovery by PIF colorimetric ELISA using rabbit anti-PIF monoclonal antibody [2]	% Recovery by Rabbit Monoclonal Antibody ([2]; spike concentration 500 ng/ml) [%]	% Recovery by Rabbit Monoclonal Antibody ([2]; spike concentration 1000 ng/ml) [%]	% recovery by Rabbit Polyclonal Antibody ([1]; spike concentration 100 ng/ml) [%]	% recovery by Rabbit Polyclonal Antibody ([1]; spike concentration 200 ng/ml) [%]	% Recovery by Rabbit Monoclonal Antibody ([2]; spike concentration 100 ng/ml) [%]	% Recovery by Rabbit Monoclonal Antibody ([2]; spike concentration 200 ng/ml) [%]
MVRIKPGSANKPSDD [Clone P1-15]	100%	115.0	101.4	100%	100.0	100.0	–	–	–	–
P8-15: PIF peptide, amino acid locations 8-15 (S A N K P S D D) (SANKPSDD) [Clone P8-15]	–	–	–	–	–	–	0	0	0	0
P1-13: PIF peptide, amino acid locations 1-13 (M V R I K P G S A N K P S) (MVRIKPGSANKPS) [Clone P1-13]	about 40%	–	–	–	–	–	49.8	31.1	0	0
P1-14: PIF peptide, amino acid locations 1-14 (M V R I K P G S A N K P S D) (MVRIKPGSANKPSD) [Clone P1-14]	about 40%	–	–	about 3.8%	–	–	44.6	30.0	3.8	3.8
P5-10: PIF peptide, amino acid locations 5-10 (K P G S A N) (KPGSAN) [Clone P5-10]	–	–	–	–	–	–	0	0	0	0
P10-15: PIF peptide, amino acid locations 10-15 (N K P S D D) (NKPSDD) [Clone P10-15]	–	–	–	–	–	–	0	0	0	0
